Assay results taken from PubChem BioAssay AID1963861 (Molecular Pharmacology Branch, DTP, NCI, 2024).

Test system: 885724-159-R-J1-PDC KRAS PDC multicell spheroid viability
Assay: Anticancer human tumor 885724-159-R-J1-PDC patient-derived pancreatic adenocarcinoma cell line growth inhibition [KRAS2]
Conditions: for IC50: curve of first compound; for viability, T/C: stronger effect = lower value
Text: Multicellular complex tumor spheroid response to RAS pathway inhibitors in combination with a targeted agents in patient-derived cell lines with oncogenic KRAS variants from multiple cancer types
A high-throughput screen of multi-cell type tumor spheroids was designed to identify active combinations of targeted small molecules and KRAS pathway inhibitors. Complex spheroids include a stromal component modeled by human endothelial cells (HUVEC) and fibroblasts modeled by human mesenchymal stem cells (MSCs). The concentration ranges selected for each drug and investigational agent were based upon clinically achievable concentrations if the clinical Cmax of the agent was known.
Compounds. The drugs and investigational agents: BI-3406 (NSC825286), BAY-293 (NSC824723), batoprotafib (TNO155; NSC825523), sotorasib (AMG 510; NSC818433), MRTX1257 (NSC819558), elimusertib (BAY 1895344; NSC800525), molibresib (GSK525762; NSC774829), temuterkib (LY3214996; NSC803410), venetoclax (NSC766270), alisertib (NSC759677), olaparib (NSC753686), talazoparib (NSC767125), erdafitinib (NSC781556), ipatasertib (NSC767898), cabozantinib (NSC761068), nintedanib (NSC756659), abemaciclib (NSC768073), docetaxel (NSC628503), trametinib (NSC758246), and sapanisertib (NSC764658) were obtained from the National Cancer Institute (NCI) Developmental Therapeutics Program Chemical Repository. The FDA-approved anticancer drug set is available from the Developmental Therapeutics Program. […] The stock solutions were prepared in dimethyl sulfoxide (DMSO, Sigma-Aldrich, St. Louis, MO, cat. D2650) at 800-fold the tested concentration and stored at -70 degrees C prior to their use. All drugs and investigational agents were tested over a range starting from a high concentration at or near the clinical Cmax and decreasing in half-log increments. If the clinical Cmax for an agent had not been determined, the highest concentration tested was 10 microM.
Cell Culture. All cells were maintained in an incubator at 37 degrees C and 5% CO2 with 95% humidity. The PDC lines were cultured according to standard operating procedures established by the NCI PDMR (https://pdmr.cancer.gov/sops/default.htm). Briefly, all PDCs were thawed and cultured in Matrigel-coated flasks prepared with a working solution of 1X Ham's F-12 nutrient mix, without supplementation (Invitrogen, Waltham, MA, cat. 11765054), 100 U/mL penicillin-streptomycin (Invitrogen, cat. 15140122), and 2.5% Matrigel (Corning Inc., Corning, NY, cat. 354248) for the first three passages. All PDCs were cultured in complete DMEM/F-12 media containing advanced DMEM/F-12 (Invitrogen, cat. 12634028), 4.9% defined fetal bovine serum, heat inactivated (HyClone Laboratories Inc., Logan, UT, cat. SH30070.03HI), 389 ng/mL hydrocortisone (Sigma-Aldrich, cat. H4001), 9.7 ng/mL human EGF recombinant protein (Invitrogen, cat. PHG0313), 23.4 microg/mL adenine (Sigma-Aldrich, cat. A2786), 97.3 U/mL penicillin-streptomycin (Invitrogen, cat. 15140122), 1.9 mM L-glutamine (Invitrogen, cat. 25030081), and 9.7 microM Y-27632 dihydrochloride (Tocris Bioscience, Bristol, United Kingdom, cat. 1254). The PDCs were cultured in complete DMEM/F12 media without 9.7 microM Y-27632 dihydrochloride for at least two passages prior to the screen. The established cell line HOP-62 was cultured in RPMI 1640 medium, HEPES (Invitrogen, cat. 22400105) with 10% defined fetal bovine serum (HyClone Laboratories Inc., cat. SH30070.03) and 2 mM L-glutamine (Invitrogen, cat. 25030081). The pooled donor HUVEC were cultured in endothelial cell growth medium 2 (PromoCell, Heidelberg, Germany, cat. C-22011) and the hMSC were cultured in mesenchymal stem cell growth medium 2 (PromoCell, cat. C-28009). For all experiments, HUVEC and hMSC were used at passages </=5, while the malignant cell lines were used at passages </=15. […]

[1] = second compound 0.1 µM, first compound 0.0316 µM
[2] = second compound 0.1 µM, first compound 0.1 µM
[3] = second compound 0.1 µM, first compound 0.316 µM
[4] = second compound 0.1 µM, first compound 1 µM
[5] = second compound 0.1 µM, first compound 3.16 µM
[6] = second compound 0.1 µM, first compound 10 µM
[7] = second compound 0.316 µM, first compound 0.0316 µM
[8] = second compound 0.316 µM, first compound 0.1 µM
[9] = second compound 0.316 µM, first compound 0.316 µM
[10] = second compound 0.316 µM, first compound 1 µM
[11] = second compound 0.316 µM, first compound 3.16 µM
[12] = second compound 0.316 µM, first compound 10 µM
[13] = second compound 1 µM, first compound 0.0316 µM
[14] = second compound 1 µM, first compound 0.1 µM
[15] = second compound 1 µM, first compound 0.316 µM
[16] = second compound 1 µM, first compound 1 µM
[17] = second compound 1 µM, first compound 3.16 µM
[18] = second compound 1 µM, first compound 10 µM
[19] = second compound 3.16 µM, first compound 0.0316 µM
[20] = second compound 3.16 µM, first compound 0.1 µM
[21] = second compound 3.16 µM, first compound 0.316 µM
[22] = second compound 3.16 µM, first compound 1 µM
[23] = second compound 3.16 µM, first compound 3.16 µM
[24] = second compound 3.16 µM, first compound 10 µM
[25] = second compound 10 µM, first compound 0.0316 µM
[26] = second compound 10 µM, first compound 0.1 µM
[27] = second compound 10 µM, first compound 0.316 µM
[28] = second compound 10 µM, first compound 1 µM
[29] = second compound 10 µM, first compound 3.16 µM
[30] = second compound 10 µM, first compound 10 µM
[31] = second compound 0.1 µM, first compound 0.01 µM
[32] = second compound 0.316 µM, first compound 0.01 µM
[33] = second compound 1 µM, first compound 0.01 µM
[34] = second compound 3.16 µM, first compound 0.01 µM
[35] = second compound 10 µM, first compound 0.01 µM
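Note: spheroids exposed to agents for 7 days before readout.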

Row | SMILES | IC50 (second compound 0.1 µM) [nM] | IC50 (second compound 0.316 µM) [nM] | IC50 (second compound 1 µM) [nM] | IC50 (second compound 3.16 µM) [nM] | IC50 (second compound 10 µM) [nM] | viability, T/C [1] [%] | viability, T/C [2] [%] | viability, T/C [3] [%] | viability, T/C [4] [%] | viability, T/C [7] [%] | viability, T/C [8] [%] | viability, T/C [9] [%] | viability, T/C [10] [%] | viability, T/C [13] [%] | viability, T/C [14] [%] | viability, T/C [15] [%] | viability, T/C [16] [%] | viability, T/C [19] [%] | viability, T/C [20] [%] | viability, T/C [21] [%] | also measured
1 | CC(C)NCC(C(=O)N1CCN(c2ncnc3c2C(C)CC3O)CC1)c1ccc(Cl)cc1 (stereo not given) + C=CC(=O)N1CCN(c2nc(=O)n(-c3c(C)ccnc3C(C)C)c3nc(-c4c(O)cccc4F)c(F)cc23)C(C)C1 | > 10000 | > 10000 | > 10000 | 3780 | 175 | 111 | 88 | 80.3 | 77.5 | 103 | 93.6 | 74.1 | 80.5 | 105 | 92.9 | 83.5 | 79.8 | 99.9 | 90.2 | 77.8 | viability, T/C [5]: 79.4%; viability, T/C [6]: 64.9%; viability, T/C [11]: 77.9%; viability, T/C [12]: 60.8%; viability, T/C [17]: 71.8%; viability, T/C [18]: 50.1%; viability, T/C [22]: 68.3%; viability, T/C [23]: 57.9%; viability, T/C [24]: 31.8%; viability, T/C [25]: 73.5%; viability, T/C [26]: 68.8%; viability, T/C [27]: 30%; viability, T/C [28]: 11.5%; viability, T/C [29]: 18.8%; viability, T/C [30]: 5.87%
2 | CC1COCCN1c1cc(-c2ccnn2C)c2ccnc(-c3ccn[nH]3)c2n1 (stereo not given) + C=CC(=O)N1CCN(c2nc(=O)n(-c3c(C)ccnc3C(C)C)c3nc(-c4c(O)cccc4F)c(F)cc23)C(C)C1 | > 3160 | 2780 | 2410 | > 3160 | 222 | 92.4 | 69.2 | 56.2 | 49.2 | 84.6 | 68.2 | 58.3 | 49 | 83.8 | 66.9 | 60.2 | 47.8 | 92.1 | 66.2 | 58.9 | viability, T/C [31]: 111%; viability, T/C [5]: 55.2%; viability, T/C [32]: 104%; viability, T/C [11]: 51.5%; viability, T/C [33]: 106%; viability, T/C [17]: 51.4%; viability, T/C [34]: 93.7%; viability, T/C [22]: 49.4%; viability, T/C [23]: 54.1%; viability, T/C [35]: 71.7%; viability, T/C [25]: 65.7%; viability, T/C [26]: 55.9%; viability, T/C [27]: 46.7%; viability, T/C [28]: 45.6%; viability, T/C [29]: 42.7%
3 | CCN1CCN(Cc2ccc(Nc3ncc(F)c(-c4cc(F)c5nc(C)n(C(C)C)c5c4)n3)nc2)CC1 + C=CC(=O)N1CCN(c2nc(=O)n(-c3c(C)ccnc3C(C)C)c3nc(-c4c(O)cccc4F)c(F)cc23)C(C)C1 | > 1000 | > 1000 | > 1000 | > 1000 | > 1000 | 99.3 | 92.6 | 87.2 | 92.6 | 102 | 95.1 | 101 | 107 | 106 | 101 | 106 | 104 | 104 | 101 | 110 | viability, T/C (second compound 0.1 µM, first compound 0.00316 µM): 116%; viability, T/C [31]: 98.6%; viability, T/C (second compound 0.316 µM, first compound 0.00316 µM): 114%; viability, T/C [32]: 104%; viability, T/C (second compound 1 µM, first compound 0.00316 µM): 112%; viability, T/C [33]: 116%; viability, T/C (second compound 3.16 µM, first compound 0.00316 µM): 114%; viability, T/C [34]: 122%; viability, T/C [22]: 114%; viability, T/C (second compound 10 µM, first compound 0.00316 µM): 72.6%; viability, T/C [35]: 84.2%; viability, T/C [25]: 84.8%; viability, T/C [26]: 85%; viability, T/C [27]: 88.8%; viability, T/C [28]: 80.2%
4 | CCNC(=O)CC1N=C(c2ccc(Cl)cc2)c2cc(OC)ccc2-n2c(C)nnc21 (stereo not given) + C=CC(=O)N1CCN(c2nc(=O)n(-c3c(C)ccnc3C(C)C)c3nc(-c4c(O)cccc4F)c(F)cc23)C(C)C1 | > 10000 | 6680 | > 10000 | 2220 | 352 | 109 | 95.6 | 86.3 | 65.6 | 105 | 94.4 | 77.6 | 61.3 | 116 | 89.6 | 66.3 | 63.9 | 105 | 90.5 | 66.3 | viability, T/C [5]: 57%; viability, T/C [6]: 52.7%; viability, T/C [11]: 55.3%; viability, T/C [12]: 47.2%; viability, T/C [17]: 51.1%; viability, T/C [18]: 51.8%; viability, T/C [22]: 51.8%; viability, T/C [23]: 51.8%; viability, T/C [24]: 45.9%; viability, T/C [25]: 78%; viability, T/C [26]: 66%; viability, T/C [27]: 48.2%; viability, T/C [28]: 43.1%; viability, T/C [29]: 39.2%; viability, T/C [30]: 33.6%
